According to ChEMBL document CHEMBL4825753 (J Med Chem, 2021):

Tests used:
[1] = AUC in C57BL/6J mouse at 100 mg/kg, po measured up to 24 hrs; type: ADME, organism-based; design: route oral, dose 100 mg/kg, time <=24; conditions: in vivo
[2] = target: T1, Receptor-type tyrosine-protein kinase FLT3 (Homo sapiens, UniProt P36888); assay: Inhibition of FLAG-tagged FLT3 (unknown origin) transfected in Cos-7 cells assessed as phosphorylation level incubated for 1 hr by ELISA; type: cell-based
T1 sequence (P36888 whole entry): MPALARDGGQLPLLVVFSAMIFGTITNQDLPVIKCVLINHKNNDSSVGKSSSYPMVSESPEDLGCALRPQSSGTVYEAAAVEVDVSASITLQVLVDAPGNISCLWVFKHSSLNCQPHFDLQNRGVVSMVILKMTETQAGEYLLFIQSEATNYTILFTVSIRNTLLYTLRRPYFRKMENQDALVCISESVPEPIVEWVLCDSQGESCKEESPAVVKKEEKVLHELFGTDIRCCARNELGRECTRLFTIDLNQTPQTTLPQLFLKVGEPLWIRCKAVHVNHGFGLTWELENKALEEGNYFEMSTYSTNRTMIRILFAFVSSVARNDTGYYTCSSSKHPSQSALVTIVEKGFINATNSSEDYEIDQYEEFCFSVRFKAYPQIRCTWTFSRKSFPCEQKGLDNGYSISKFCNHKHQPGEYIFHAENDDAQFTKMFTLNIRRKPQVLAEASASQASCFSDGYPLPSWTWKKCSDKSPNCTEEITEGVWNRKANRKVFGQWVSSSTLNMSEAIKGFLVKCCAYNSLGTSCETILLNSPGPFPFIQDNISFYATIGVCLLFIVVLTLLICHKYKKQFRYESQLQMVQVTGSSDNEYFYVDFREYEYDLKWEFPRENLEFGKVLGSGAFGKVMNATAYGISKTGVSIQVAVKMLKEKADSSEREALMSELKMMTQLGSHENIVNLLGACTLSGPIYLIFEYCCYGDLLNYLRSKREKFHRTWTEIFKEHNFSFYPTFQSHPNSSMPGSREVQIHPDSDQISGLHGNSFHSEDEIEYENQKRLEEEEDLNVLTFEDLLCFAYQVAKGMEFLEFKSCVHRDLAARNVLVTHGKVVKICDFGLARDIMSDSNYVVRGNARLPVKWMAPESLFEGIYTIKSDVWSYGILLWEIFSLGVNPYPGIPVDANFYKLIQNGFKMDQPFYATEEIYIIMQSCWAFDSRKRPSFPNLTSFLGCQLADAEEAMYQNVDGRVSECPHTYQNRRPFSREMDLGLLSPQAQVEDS

[3] = target: T2, Tyrosine-protein kinase receptor UFO (Homo sapiens, UniProt P30530); assay: Inhibition of FLAG-tagged AXL (unknown origin) transfected in Cos-7 cells assessed as phosphorylation level incubated for 1 hr by ELISA; type: cell-based
T2 sequence (P30530 whole entry): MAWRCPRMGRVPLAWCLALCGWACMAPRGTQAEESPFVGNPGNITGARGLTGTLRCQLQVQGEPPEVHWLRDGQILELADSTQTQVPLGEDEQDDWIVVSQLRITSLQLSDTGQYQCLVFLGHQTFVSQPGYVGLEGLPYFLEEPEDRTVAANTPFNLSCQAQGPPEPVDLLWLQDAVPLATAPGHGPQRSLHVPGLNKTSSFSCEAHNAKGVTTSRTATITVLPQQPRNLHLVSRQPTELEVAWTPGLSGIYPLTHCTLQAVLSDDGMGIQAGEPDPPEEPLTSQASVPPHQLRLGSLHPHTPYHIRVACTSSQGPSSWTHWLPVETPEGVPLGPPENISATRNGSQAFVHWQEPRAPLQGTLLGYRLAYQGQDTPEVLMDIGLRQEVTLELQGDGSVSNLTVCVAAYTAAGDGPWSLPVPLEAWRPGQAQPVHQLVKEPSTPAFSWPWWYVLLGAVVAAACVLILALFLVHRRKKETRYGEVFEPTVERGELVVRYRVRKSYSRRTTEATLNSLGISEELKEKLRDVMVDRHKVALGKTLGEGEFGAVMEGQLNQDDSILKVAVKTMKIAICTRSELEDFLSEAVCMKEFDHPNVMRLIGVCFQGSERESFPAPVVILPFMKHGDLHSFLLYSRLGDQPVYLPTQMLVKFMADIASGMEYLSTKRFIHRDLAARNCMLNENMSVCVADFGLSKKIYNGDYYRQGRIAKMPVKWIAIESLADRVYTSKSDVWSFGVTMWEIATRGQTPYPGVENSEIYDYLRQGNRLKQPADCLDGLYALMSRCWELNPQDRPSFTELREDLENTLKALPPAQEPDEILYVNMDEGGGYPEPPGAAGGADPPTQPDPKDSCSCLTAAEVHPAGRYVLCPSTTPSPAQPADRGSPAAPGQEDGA

[4] = Lipophilicity, log D of the compound at pH 7.4; type: physicochemical; conditions: buffer
[5] = target: T1, Receptor-type tyrosine-protein kinase FLT3; assay: Inhibition of FLT3 (unknown origin) by LC-MS analysis
[6] = target: T2, Tyrosine-protein kinase receptor UFO; assay: Inhibition of AXL (unknown origin) by LC-MS analysis
[7] = Induction efferocytosis in human PBMC assessed as CD14-positive monocytes
[8] = target: T3, Tyrosine-protein kinase receptor TYRO3 (Homo sapiens, UniProt Q06418); assay: Inhibition of FLAG-tagged Tyro3 (unknown origin) transfected in Cos-7 cells assessed as phosphorylation level incubated for 1 hr by ELISA; type: cell-based
T3 sequence (Q06418 whole entry): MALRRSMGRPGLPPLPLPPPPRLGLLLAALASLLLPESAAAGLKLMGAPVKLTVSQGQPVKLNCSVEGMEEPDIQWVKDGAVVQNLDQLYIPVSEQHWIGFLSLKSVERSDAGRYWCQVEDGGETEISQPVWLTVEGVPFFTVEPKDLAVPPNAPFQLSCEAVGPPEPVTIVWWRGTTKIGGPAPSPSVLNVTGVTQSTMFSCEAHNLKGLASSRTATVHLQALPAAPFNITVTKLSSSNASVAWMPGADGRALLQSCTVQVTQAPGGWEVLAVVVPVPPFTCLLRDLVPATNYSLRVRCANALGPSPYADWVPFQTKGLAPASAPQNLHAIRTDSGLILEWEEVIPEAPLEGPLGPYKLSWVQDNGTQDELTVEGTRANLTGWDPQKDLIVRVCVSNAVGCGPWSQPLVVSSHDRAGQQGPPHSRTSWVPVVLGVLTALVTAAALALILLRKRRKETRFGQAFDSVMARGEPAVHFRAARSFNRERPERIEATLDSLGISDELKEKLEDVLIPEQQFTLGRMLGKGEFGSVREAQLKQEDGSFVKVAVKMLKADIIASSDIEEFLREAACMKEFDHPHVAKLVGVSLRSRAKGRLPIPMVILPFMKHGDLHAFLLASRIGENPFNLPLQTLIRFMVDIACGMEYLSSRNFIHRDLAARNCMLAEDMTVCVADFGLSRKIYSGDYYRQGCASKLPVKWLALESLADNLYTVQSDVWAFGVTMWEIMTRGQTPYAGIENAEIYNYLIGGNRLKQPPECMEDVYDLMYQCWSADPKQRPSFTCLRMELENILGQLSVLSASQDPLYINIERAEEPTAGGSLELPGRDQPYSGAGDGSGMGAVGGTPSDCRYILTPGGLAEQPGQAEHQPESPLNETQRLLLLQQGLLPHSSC

Row | AUC at 24 h [1] | IC50 [2] | IC50 [3] | logD [4] | IC50 [5] | IC50 [6] | pIC50 [7] | IC50 [8] | SMILES
1 | 295 µM·h | 20 µM | 0.398 µM | 3.7 | 15.8 µM | 0.0794 µM | 6.8 | > 31.6 µM | Cc1cc(-c2c(C)nn(C)c2C)ccc1-c1nnc(N(C)Cc2ccc3nccn3c2)o1
2 |  | > 31.6 µM | 6.31 µM | 2.8 | 20 µM | 1 µM | 6 | > 31.6 µM | Cc1cc(-c2c(C)nn(C)c2C)cnc1-c1nnc(N(C)Cc2ccc3nccn3c2)o1
3 | 71 µM·h | > 31.6 µM | 0.1 µM | 2.9 |  |  | 7.6 | > 31.6 µM | Cc1cc(-c2c(C)nn(C)c2C)cnc1-c1nnc(N(C)Cc2ccc3ncc(-c4ccc(CN(C)C)cc4)n3c2)o1
